From patent publication US8247211B2, “Glycopeptide antibiotics” (American Cyanamid Company, priority 2001, dated 2012)
≈ marks a conversion by molar mass, not a printed value.

Key:
Assay in all cases: In vitro antibacterial evaluation: minimum inhibitory concentration (MIC), broth dilution method
Format in all cases: cell-based
Details in all cases: broth dilution, 18 hours at 35° C.
Enterococcus sp. = test system: Enterococcus sp.
Procedure, shortened: (§1)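 Test strains, among them recent clinical isolates carrying methicillin, penicillin and/or vancomycin resistance, were inoculated at 5×10^5 CFU/mL. A broth dilution series spanning 64-0.06 μg/mL in Muller-Hinton II […] (NCCLS M7-A2) defined the MIC as the lowest growth-inhibiting concentration.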

Staphylococcus sp. = test system: Staphylococcus sp.
Procedure, shortened: as §1

Streptococcus sp. = test system: Streptococcus sp.
Procedure, shortened: as §1

Escherichia coli = test system: Escherichia coli

MIC Enterococcus avium (GC 4558) (Enterococcus sp.; Enterococcus avium (GC 4558)): 8 µg/mL (≈ 7.15 µM) | MIC Enterococcus faecalis (ATCC 29212) (Enterococcus sp.; Enterococcus faecalis (ATCC 29212)): 32 µg/mL (≈ 28.6 µM) | MIC Enterococcus faecalis (GC 2242) (Enterococcus sp.; Enterococcus faecalis (GC 2242)): 16 µg/mL (≈ 14.3 µM) | MIC Enterococcus faecalis (GC 2691) (Enterococcus sp.; Enterococcus faecalis (GC 2691)): 32 µg/mL (≈ 28.6 µM) | MIC Enterococcus faecalis (GC 3059) (Enterococcus sp.; Enterococcus faecalis (GC 3059)): 32 µg/mL (≈ 28.6 µM) | MIC Enterococcus faecalis (GC 4552) (Enterococcus sp.; Enterococcus faecalis (GC 4552)): 16 µg/mL (≈ 14.3 µM) | MIC Enterococcus faecalis (GC 4553) (Enterococcus sp.; Enterococcus faecalis (GC 4553)): 16 µg/mL (≈ 14.3 µM) | MIC Enterococcus faecalis (GC 4554) (Enterococcus sp.; Enterococcus faecalis (GC 4554)): 16 µg/mL (≈ 14.3 µM) | MIC Enterococcus faecalis (GC 6189) (Enterococcus sp.; Enterococcus faecalis (GC 6189)): 16 µg/mL (≈ 14.3 µM) | MIC Enterococcus faecium (GC 2243) (Enterococcus sp.; Enterococcus faecium (GC 2243)): 16 µg/mL (≈ 14.3 µM) | MIC Enterococcus faecium (GC 4556) (Enterococcus sp.; Enterococcus faecium (GC 4556)): 32 µg/mL (≈ 28.6 µM) | MIC Enterococcus faecium (GC 4557) (Enterococcus sp.; Enterococcus faecium (GC 4557)): 4 µg/mL (≈ 3.58 µM) | MIC Enterococcus avium (GC 4558) (Enterococcus sp.): 8 µg/mL (≈ 7.15 µM) | MIC Enterococcus faecalis (ATCC 29212) (Enterococcus sp.): 32 µg/mL (≈ 28.6 µM) | MIC Enterococcus faecalis (GC 2242) (Enterococcus sp.): 16 µg/mL (≈ 14.3 µM) | MIC Enterococcus faecalis (GC 2691) (Enterococcus sp.): 32 µg/mL (≈ 28.6 µM) | MIC Enterococcus faecalis (GC 3059) (Enterococcus sp.): 32 µg/mL (≈ 28.6 µM) | MIC Enterococcus faecalis (GC 4552) (Enterococcus sp.): 16 µg/mL (≈ 14.3 µM) | MIC Enterococcus faecalis (GC 4553) (Enterococcus sp.): 16 µg/mL (≈ 14.3 µM) | MIC Enterococcus faecalis (GC 4554) (Enterococcus sp.): 16 µg/mL (≈ 14.3 µM) | MIC Enterococcus faecalis (GC 6189) (Enterococcus sp.): 16 µg/mL (≈ 14.3 µM) | MIC Enterococcus faecium (GC 2243) (Enterococcus sp.): 16 µg/mL (≈ 14.3 µM) | MIC Enterococcus faecium (GC 4556) (Enterococcus sp.): 32 µg/mL (≈ 28.6 µM) | MIC Enterococcus faecium (GC 4557) (Enterococcus sp.): 4 µg/mL (≈ 3.58 µM) | MIC Coagulase Negative Staphylococcus (GC 4547) (Staphylococcus sp.): 4 µg/mL (≈ 3.58 µM) | MIC Coagulase Negative Staphylococcus (GC 4548) (Staphylococcus sp.): 8 µg/mL (≈ 7.15 µM) | MIC Coagulase Negative Staphylococcus (GC 4549) (Staphylococcus sp.): 4 µg/mL (≈ 3.58 µM) | MIC Coagulase Negative Staphylococcus (GC 4551) (Staphylococcus sp.): 8 µg/mL (≈ 7.15 µM) | MIC Coagulase Negative Staphylococcus (GC 6257) (Staphylococcus sp.): 4 µg/mL (≈ 3.58 µM) | MIC Staphylococcus aureus SMITH (GC 4543) (Staphylococcus sp.): 8 µg/mL (≈ 7.15 µM) | MIC Staphylococcus aureus-SMITH (GC 4543) (Staphylococcus sp.; strain SMITH GC 4543): 8 µg/mL (≈ 7.15 µM) | MIC Streptococcus agalactiae (GC 4564) (Streptococcus sp.; Streptococcus agalactiae (GC 4564)): 16 µg/mL (≈ 14.3 µM) | MIC Streptococcus pneumoniae (ATCC 6301) (Streptococcus sp.; Streptococcus pneumoniae (ATCC 6301)): 16 µg/mL (≈ 14.3 µM) | MIC Streptococcus pneumoniae (GC 1894) (Streptococcus sp.; Streptococcus pneumoniae (GC 1894)): 16 µg/mL (≈ 14.3 µM) | MIC Streptococcus pneumoniae (GC 4565) (Streptococcus sp.; Streptococcus pneumoniae (GC 4565)): 32 µg/mL (≈ 28.6 µM) | MIC Streptococcus pyogenes (GC 4563) (Streptococcus sp.; Streptococcus pyogenes (GC 4563)): 4 µg/mL (≈ 3.58 µM) | MIC Streptococcus agalactiae (GC 4564) (Streptococcus sp.): 16 µg/mL (≈ 14.3 µM) | MIC Streptococcus pneumoniae (ATCC 6301) (Streptococcus sp.): 16 µg/mL (≈ 14.3 µM) | MIC Streptococcus pneumoniae (GC 1894) (Streptococcus sp.): 16 µg/mL (≈ 14.3 µM) | MIC Streptococcus pneumoniae (GC 4565) (Streptococcus sp.): 32 µg/mL (≈ 28.6 µM) | MIC Streptococcus pyogenes (GC 4563) (Streptococcus sp.): 4 µg/mL (≈ 3.58 µM) | MIC Escherichia coli (ATCC 25922) (Escherichia coli): 16 µg/mL (≈ 14.3 µM) | MIC Escherichia coli (GC 4559) (Escherichia coli): 16 µg/mL (≈ 14.3 µM) | MIC Escherichia coli (GC 4560) (Escherichia coli): 4 µg/mL (≈ 3.58 µM)
Compound: CC(c1ccccc1)C1NC(=O)CNC(=O)C(CO)NC(=O)C(C(O)C2CNC(=N)N2C2OC(CO)C(O)C(O)C2O)NC(=O)C(C(O)C2CNC(=N)N2)NC(=O)C(Cc2ccc3oc(SCc4ccccc4)nc3c2)NC1=O (stereo not drawn) [Example 45, Cyclo[3-[2-(benzylthio)-1,3-benzoxazol-5-yl]alanyl-3-(2-iminoimidazolidin-4-yl)seryl-3-(3-hexopyranosyl-2-iminoimidazolidin-4-yl)serylserylglycyl-β-methylphenylalanyl]]
MIC Staphylococcus haemolyticus (GC 4546) (Staphylococcus sp.): 4 µg/mL (≈ 3.58 µM)
